Experiments:
barnyardgrass [1] = experiment: Test A pre-/postemergence herbicide test; assay type: in vivo, Echinochloa crus-galli
Summary of the method: (§1)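 Seeds sown in sandy loam received a preemergence directed soil spray of compound in non-phytotoxic solvent with surfactant; postemergence plants (2–10 cm, one- to two-leaf stage) were sprayed to runoff at the same time. After ~10 days in greenhouse, injury was rated visually versus untreated controls (0 = no effect, 100 = complete control).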

large crabgrass [2] = experiment: Test A pre-/postemergence herbicide test; assay type: in vivo, Digitaria sanguinalis
Summary of the method: as §1

giant foxtail [3] = experiment: Test A pre-/postemergence herbicide test; assay type: in vivo, Setaria faberi
Summary of the method: as §1

morningglory [4] = experiment: Test A pre-/postemergence herbicide test; assay type: in vivo, Ipomoea spp.
Summary of the method: as §1

redroot pigweed = experiment: Test A pre-/postemergence herbicide test; assay type: in vivo, Amaranthus retroflexus
Summary of the method: as §1

velvetleaf [5] = experiment: Test A pre-/postemergence herbicide test; assay type: in vivo, Abutilon theophrasti
Summary of the method: as §1

barnyardgrass [6] = experiment: Test B pre-/postemergence herbicide test; assay type: in vivo, Echinochloa crus-galli; conditions: for Barnyardgrass plant response rating: postemergence, visual rating, scale 0 (no effect) to 100 (complete control)
Summary of the method: (§2)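 Greenhouse pot assay with simultaneous preemergence (treated seed) and postemergence (2–18 cm seedlings) applications of surfactant-containing, non-phytotoxic solvent formulations. Response scored visually 13–15 days later on a 0–100 scale, 100 meaning complete control.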

Surinam grass = experiment: Test B pre-/postemergence herbicide test; assay type: in vivo, Urochloa decumbens; conditions: for Surinam Grass plant response rating: postemergence, visual rating, scale 0 (no effect) to 100 (complete control)
Summary of the method: (§3)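 Seeds were planted and treated preemergence with compounds formulated in a non-phytotoxic solvent mixture containing surfactant, while plants at the 1- to 4-leaf stage (2 to 18 cm) received postemergence sprays. Flooded paddy plants were grown to the 2-leaf stage. After 13 to 15 days in a greenhouse, injury was visually rated 0–100 against untreated controls.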

cocklebur = experiment: Test B pre-/postemergence herbicide test; assay type: in vivo, Xanthium strumarium; conditions: for Cocklebur plant response rating: postemergence, visual rating, scale 0 (no effect) to 100 (complete control)
Summary of the method: as §2

corn = experiment: Test B pre-/postemergence herbicide test; assay type: in vivo, Zea mays; conditions: for Corn plant response rating: postemergence, visual rating, scale 0 (no effect) to 100 (complete control)
Summary of the method: as §3

large crabgrass [7] = experiment: Test B pre-/postemergence herbicide test; assay type: in vivo, Digitaria sanguinalis; conditions: for Crabgrass, Large plant response rating: postemergence, visual rating, scale 0 (no effect) to 100 (complete control)
Summary of the method: as §3

giant foxtail [8] = experiment: Test B pre-/postemergence herbicide test; assay type: in vivo, Setaria faberi; conditions: for Foxtail, Giant plant response rating: postemergence, visual rating, scale 0 (no effect) to 100 (complete control)
Summary of the method: as §3

lambsquarters = experiment: Test B pre-/postemergence herbicide test; assay type: in vivo, Chenopodium album; conditions: for Lambsquarters plant response rating: postemergence, visual rating, scale 0 (no effect) to 100 (complete control)
Summary of the method: as §3

morningglory [9] = experiment: Test B pre-/postemergence herbicide test; assay type: in vivo, Ipomoea coccinea; conditions: for Morningglory plant response rating: postemergence, visual rating, scale 0 (no effect) to 100 (complete control)
Summary of the method: as §2

pigweed = experiment: Test B pre-/postemergence herbicide test; assay type: in vivo, Amaranthus retroflexus; conditions: for Pigweed plant response rating: postemergence, visual rating, scale 0 (no effect) to 100 (complete control)
Summary of the method: as §3

rice [10] = experiment: Test B pre-/postemergence herbicide test; assay type: in vivo, Oryza sativa; conditions: preemergence
Summary of the method: as §3

velvetleaf [11] = experiment: Test B pre-/postemergence herbicide test; assay type: in vivo, Abutilon theophrasti; conditions: for Velvetleaf plant response rating: postemergence, visual rating, scale 0 (no effect) to 100 (complete control)
Summary of the method: as §3

blackgrass = experiment: Test B postemergence herbicide test; assay type: in vivo, Alopecurus myosuroides; conditions: postemergence, visual rating, scale 0 (no effect) to 100 (complete control)
Summary of the method: (§4)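 Greenhouse test; postemergence application to plants at 1–4 leaves (2–18 cm); paddy species at 2 leaves; evaluated visually vs controls at 13–15 days; scale 0–100 (100 = complete control).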

wheat = experiment: Test B postemergence herbicide test; assay type: in vivo, Triticum aestivum; set-up: key to Wheat plant response rating: 0 = no effect, 100 = complete control; conditions: postemergence, visual rating, scale 0 (no effect) to 100 (complete control)
Summary of the method: (§5)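 Read-out: visual comparison with controls, scored 0 to 100, where 100 means complete control and 0 no effect. Formulated chemicals were applied postemergence to plants 2–18 cm tall (1- to 4-leaf), or to flooded-paddy plants at the 2-leaf stage, then held 13 to 15 days under glass.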

wild oat = experiment: Test B postemergence herbicide test; assay type: in vivo, Avena fatua; conditions: postemergence, visual rating, scale 0 (no effect) to 100 (complete control)
Summary of the method: as §5

rice [12] = experiment: Test B flooded paddy test; assay type: in vivo, Oryza sativa; conditions: 1000 g ai/ha, visual rating, scale 0 to 100 (0 no effect, 100 complete control), 13 to 15 days
Summary of the method: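 Visual ratings, 0 (no effect) to 100 (complete control), made versus controls after 13–15 d greenhouse. Paddy plants treated at 2-leaf stage; postemergence plants at 1- to 4-leaf stage, 2–18 cm tall.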

[13] = tested on: small flower umbrella sedge; experiment: Test B flooded paddy test; assay type: in vivo, Cyperus difformis; conditions: 1000 g ai/ha, visual rating, scale 0 to 100 (0 no effect, 100 complete control), 13 to 15 days
Summary of the method: as §4

ducksalad = experiment: Test B flooded paddy test; assay type: in vivo, Heteranthera limosa; conditions: 1000 g ai/ha, visual rating, scale 0 to 100 (0 no effect, 100 complete control), 13 to 15 days
Summary of the method: as §4

barnyardgrass [14] = experiment: Test B flooded paddy test; assay type: in vivo, Echinochloa crus-galli; conditions: 1000 g ai/ha, visual rating, scale 0 to 100 (0 no effect, 100 complete control), 13 to 15 days
Summary of the method: as §4

[15] = Postemergence, 500 g ai/ha, 0 to 100 scale, 0 no effect, 100 complete control
[16] = Postemergence, 2000 g ai/ha, 0 to 100 scale, 0 no effect, 100 complete control
[17] = Preemergence, 2000 g ai/ha, visual rating, 0 to 100 scale (0 no effect, 100 complete control)
[18] = preemergence, 500 g ai/ha, visual injury, 0 to 100 scale (0 no effect, 100 complete control)
[19] = 125 g ai/ha, 0 = no effect, 100 = complete control, preemergence
[20] = 500 g ai/ha, visual rating 0-100, 0 no effect, 100 complete control, preemergence

Structure (SMILES): CCOC(=O)c1cccc(NC(=O)c2sc(C(C)(C)C)nc2CC)c1 [Compound 204]
- Barnyardgrass plant response rating (barnyardgrass [1]; [15]): 25
- Plant response rating, Barnyardgrass (barnyardgrass [1]; [16]): 30
- Barnyardgrass plant response rating (barnyardgrass [1]; [17]): 5
- Barnyardgrass plant response rating (barnyardgrass [1]; [18]): 0
- Crabgrass, Large plant response rating (large crabgrass [2]; [15]): 30
- Plant response rating, Crabgrass, Large (large crabgrass [2]; [16]): 30
- Crabgrass, Large plant response rating (large crabgrass [2]; [17]): 10
- Crabgrass, Large plant response rating (large crabgrass [2]; [18]): 0
- Foxtail, Giant plant response rating (giant foxtail [3]; [15]): 25
- Plant response rating, Foxtail, Giant (giant foxtail [3]; [16]): 25
- Foxtail, Giant plant response rating (giant foxtail [3]; [17]): 10
- Foxtail, Giant plant response rating (giant foxtail [3]; [18]): 0
- Morningglory plant response rating (morningglory [4]; [15]): 20
- Plant response rating, Morningglory (morningglory [4]; [16]): 15
- Morningglory plant response rating (morningglory [4]; [17]): 25
- Morningglory plant response rating (morningglory [4]; [18]): 10
- Pigweed plant response rating (redroot pigweed; [15]): 50
- Plant response rating, Pigweed (redroot pigweed; [16]): 60
- Pigweed plant response rating (redroot pigweed; [17]): 10
- Pigweed plant response rating (redroot pigweed; [18]): 0
- Velvetleaf plant response rating (velvetleaf [5]; [15]): 40
- Plant response rating, Velvetleaf (velvetleaf [5]; [16]): 60
- Velvetleaf plant response rating (velvetleaf [5]; [17]): 25
- Velvetleaf plant response rating (velvetleaf [5]; [18]): 5
- Barnyardgrass plant response rating (0 to 100 scale) (barnyardgrass [6]; [19]): 0
- Plant response rating, Barnyardgrass (barnyardgrass [6]; [20]): 0
- Barnyardgrass plant response rating (barnyardgrass [6]; 125 g ai/ha): 10
- Barnyardgrass plant response rating (barnyardgrass [6]; 500 g ai/ha): 10
- Surinam Grass plant response rating (0 to 100 scale) (Surinam grass; [19]): 0
- Plant response rating, Surinam Grass (Surinam grass; [20]): 0
- Surinam Grass plant response rating (Surinam grass; 125 g ai/ha): 20
- Surinam Grass plant response rating (Surinam grass; 500 g ai/ha): 50
- Cocklebur plant response rating (0 to 100 scale) (cocklebur; [19]): 0
- Plant response rating, Cocklebur (cocklebur; [20]): 0
- Cocklebur plant response rating (cocklebur; 125 g ai/ha): 90
- Cocklebur plant response rating (cocklebur; 500 g ai/ha): 90
- Corn plant response rating (0 to 100 scale) (corn; [19]): 0
- Plant response rating, Corn (corn; [20]): 0
- Corn plant response rating (corn; 125 g ai/ha): 20
- Corn plant response rating (corn; 500 g ai/ha): 20
- Crabgrass, Large plant response rating (0 to 100 scale) (large crabgrass [7]; [19]): 0
- Plant response rating, Crabgrass, Large (large crabgrass [7]; [20]): 0
- Crabgrass, Large plant response rating (large crabgrass [7]; 125 g ai/ha): 10
- Crabgrass, Large plant response rating (large crabgrass [7]; 500 g ai/ha): 10
- Foxtail, Giant plant response rating (0 to 100 scale) (giant foxtail [8]; [19]): 0
- Plant response rating, Foxtail, Giant (giant foxtail [8]; [20]): 0
- Foxtail, Giant plant response rating (giant foxtail [8]; 125 g ai/ha): 10
- Foxtail, Giant plant response rating (giant foxtail [8]; 500 g ai/ha): 20
- Lambsquarters plant response rating (0 to 100 scale) (lambsquarters; [19]): 0
- Plant response rating, Lambsquarters (lambsquarters; [20]): 0
- Lambsquarters plant response rating (lambsquarters; 125 g ai/ha): 30
- Lambsquarters plant response rating (lambsquarters; 500 g ai/ha): 50
- Plant response rating, Morningglory (morningglory [9]; [20]): 10
- Morningglory plant response rating (morningglory [9]; 125 g ai/ha): 20
- Morningglory plant response rating (morningglory [9]; 500 g ai/ha): 40
- Pigweed plant response rating (0 to 100 scale) (pigweed; [19]): 0
- Plant response rating, Pigweed (pigweed; [20]): 10
- Pigweed plant response rating (pigweed; 125 g ai/ha): 50
- Pigweed plant response rating (pigweed; 500 g ai/ha): 70
- Rice plant response rating (0 to 100 scale) (rice [10]; 125 g ai/ha, 0 = no effect, 100 = complete control): 0
- Plant response rating, Rice (rice [10]; 500 g ai/ha, visual rating 0-100, 0 no effect, 100 complete control): 0
- Velvetleaf plant response rating (0 to 100 scale) (velvetleaf [11]; [19]): 0
- Plant response rating, Velvetleaf (velvetleaf [11]; [20]): 0
- Velvetleaf plant response rating (velvetleaf [11]; 125 g ai/ha): 60
- Velvetleaf plant response rating (velvetleaf [11]; 500 g ai/ha): 70
- Blackgrass plant response rating (blackgrass; 125 g ai/ha): 20
- Blackgrass plant response rating (blackgrass; 500 g ai/ha): 20
- Wheat plant response rating (wheat; 125 g ai/ha): 10
- Wheat plant response rating (wheat; 500 g ai/ha): 30
- Oat, Wild plant response rating (wild oat; 125 g ai/ha): 10
- Oat, Wild plant response rating (wild oat; 500 g ai/ha): 20
- Rice plant response rating (rice [12]): 30
- Sedge, Umbrella plant response rating [13]: 80
- Ducksalad plant response rating (ducksalad): 40
- Barnyardgrass plant response rating (barnyardgrass [14]): 20
